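Five concentrations, 48 hours, 96-well plates. At the GI50, growth is halved.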 Active and inactive are the calls of the source. Cut-off read from the data, not from the text of the source: active = GI50 up to about 1.1 µM and inactive = higher.
Tests used:
Assay in all cases: growth of human tumour cells (NCI), 48 h
[1] = system: DMS-273
[2] = system: COLO 205
[3] = system: HCT-116
[4] = system: HT-29
[5] = system: SF-295
[6] = system: TK-10
[7] = system: ACHN
[8] = system: A549
[9] = system: K562
[10] = system: SR
[11] = system: 786-0
[12] = system: SF-539
[13] = system: KM-20L2
[14] = system: A498
[15] = system: NCI-H226
[16] = system: HOP-18
[17] = system: RPMI-8226
[18] = system: OVCAR-4
[19] = system: CAKI-1
[20] = system: MOLT-4
[21] = system: IGROV-1
[22] = system: KM12
[23] = system: RXF 393
[24] = system: UACC-62
[25] = system: UACC-257
[26] = system: M19-MEL
[27] = system: NCI-H23
[28] = system: OVCAR-3
[29] = system: SF-268
[30] = system: HOP-62
[31] = system: Malme-3M
[32] = system: SNB-75
[33] = system: CCRF-CEM
[34] = system: DMS-114
[35] = system: SN12C
[36] = system: LXFL 529
[37] = system: HCC 2998
[38] = system: M14
[39] = system: SW-620
[40] = system: OVCAR-8
[41] = system: SNB-19
[42] = system: U-251
[43] = system: SK-MEL-5
[44] = system: NCI-H522
[45] = system: DLD-1
[46] = system: LOX IMVI
[47] = system: HCT-15
[48] = system: OVCAR-5
[49] = system: SK-MEL-2
[50] = system: UO-31
[51] = system: XF498
[52] = system: NCI-H460
[53] = system: SK-MEL-28
[54] = system: MCF7
[55] = system: NCI/ADR-RES
[56] = system: PC-3
[57] = system: DU-145
[58] = system: SK-OV-3
[59] = system: Hs-578T
[60] = system: HOP-92
[61] = system: MDA-N
[62] = system: BT-549
[63] = system: HL-60
[64] = system: SNB-78
[65] = system: MDA-MB-231
[66] = system: MDA-MB-435
[67] = system: T47D

Measured: GI50

CCCCCCCCCCCC(=O)OCC1OC(OC)C(NC(=O)N(CCCl)N=O)C(O)C1O (stereo not drawn)
inactive: [1] 11200 nM | [2] 21900 nM | [3] 13200 nM | [4] 16900 nM | [5] 8240 nM | [6] 25700 nM | [7] 10600 nM | [8] 12500 nM | [9] 10300 nM | [10] 2790 nM | [12] 2960 nM | [13] 17000 nM | [14] 18700 nM | [15] 23000 nM | [16] 34300 nM | [17] 7500 nM | [18] 17800 nM | [19] > 100000 nM | [20] 1690 nM | [21] 29700 nM | [22] 17300 nM | [23] 13300 nM | [24] 1330 nM | [25] 14300 nM | [26] 38800 nM | [27] > 10000 nM | [28] 16300 nM | [29] 2320 nM | [30] 18700 nM | [31] 12200 nM | [32] 14100 nM | [34] 16600 nM | [35] 11600 nM | [36] 12600 nM | [37] 14400 nM | [38] 11100 nM | [39] 4270 nM | [40] 19300 nM | [41] 10100 nM | [42] 7060 nM | [43] 13100 nM | [44] 10300 nM | [45] 17500 nM | [46] 6270 nM | [48] 20400 nM | [49] 26300 nM | [50] 16700 nM | [51] 12400 nM | [52] 5220 nM | [53] 15800 nM
27200 nM: [47]
active: [11] 621 nM | [33] 516 nM

COc1cc(NCc2ccc3nc(N)nc(N)c3c2C)cc(OC)c1OC
inactive: [55] 2740 nM | [14] 2390 nM | [15] 11400 nM | [16] 7290 nM | [18] 22400 nM | [58] 2840 nM | [23] 2150 nM | [31] 1550 nM | [32] 4370 nM | [64] 5420 nM | [65] 4030 nM | [48] 1850 nM | [49] 17900 nM | [51] 2570 nM
active: [54] 30.8 nM | [1] 25 nM | [2] 1070 nM | [56] 0.383 nM | [3] 35.2 nM | [4] 26.7 nM | [5] 30.8 nM | [57] 1.02 nM | [6] 10.5 nM | [7] 0.395 nM | [8] 40.7 nM | [9] 38 nM | [10] 0.359 nM | [11] 1.06 nM | [12] 26.9 nM | [13] 34.7 nM | [17] 56.2 nM | [19] 194 nM | [20] 25 nM | [21] 31.6 nM | [22] 47.8 nM | [24] 25 nM | [25] 140 nM | [26] 326 nM | [59] 99.3 nM | [60] 750 nM | [27] 45.3 nM | [28] 288 nM | [29] 25.8 nM | [30] 28.6 nM | [61] 0.2 nM | [62] 685 nM | [33] 25 nM | [34] 25 nM | [35] 31.6 nM | [63] 43 nM | [37] 109 nM | [38] 0.24 nM | [39] 25 nM | [40] 26.2 nM | [41] 59.7 nM | [42] 37.9 nM | [43] 28.9 nM | [45] 25.3 nM | [46] 25 nM | [66] 36.5 nM | [67] 65.8 nM | [50] 1050 nM | [52] 25 nM | [53] 313 nM
25 nM: [47]

Reference: ChEMBL document CHEMBL1201862, “PubChem BioAssay data set” (2004)
